The source of these data is PMC7335359, “Design and Synthesis of Dihydroxamic Acids as HDAC6/8/10 Inhibitors” (Chemmedchem, 2020).

Usually EC50 stands for the concentration that produces a half-maximal response.

Data set [1] deals with T1, HDAC10 (Homo sapiens, UniProt Q969S8).
T1 sequence (Q969S8 1-669): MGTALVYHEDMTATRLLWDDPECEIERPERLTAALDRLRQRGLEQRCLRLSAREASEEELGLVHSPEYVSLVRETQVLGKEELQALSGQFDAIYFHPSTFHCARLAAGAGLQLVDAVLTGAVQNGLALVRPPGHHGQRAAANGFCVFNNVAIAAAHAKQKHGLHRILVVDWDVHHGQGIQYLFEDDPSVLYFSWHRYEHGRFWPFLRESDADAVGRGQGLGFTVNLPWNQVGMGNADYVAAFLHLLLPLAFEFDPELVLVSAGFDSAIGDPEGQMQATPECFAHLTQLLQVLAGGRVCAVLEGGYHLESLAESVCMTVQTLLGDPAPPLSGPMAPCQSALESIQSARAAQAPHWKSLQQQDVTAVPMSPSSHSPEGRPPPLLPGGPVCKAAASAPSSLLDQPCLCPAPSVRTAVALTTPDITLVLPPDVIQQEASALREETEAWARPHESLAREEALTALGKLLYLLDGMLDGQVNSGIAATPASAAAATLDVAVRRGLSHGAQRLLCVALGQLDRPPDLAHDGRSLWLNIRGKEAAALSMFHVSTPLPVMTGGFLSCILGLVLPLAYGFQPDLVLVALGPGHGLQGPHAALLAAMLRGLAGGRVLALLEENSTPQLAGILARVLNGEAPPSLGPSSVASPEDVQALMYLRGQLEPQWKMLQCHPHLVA
The data set can be described thus: ligand displacement TR-FRET assay, HDAC10. In kind it is binding. More on the design: host or cells: Sf21 insect cells (baculovirus). To be noted: ligand-displacement FRET assay; read-out: HDAC10 pIC50 (converted). Here is the method:
Expression and purification of TwinStrepII‐GST‐HDAC10: A synthetic gene encoding TwinStrepII‐GST‐HDAC10 (human) was ordered from GeneArt (Thermo Fischer Scientific) and subcloned into the pFastBac1 vector. The resulting construct was used for transposition in E. coli DH10EMBacY cells. The isolated bacmid DNA was then used to generate the recombinant baculovirus. For protein expression, 10 mL of baculovirus was added to 1 L of Sf21 cells at a density of 1×10^6 cells/mL. The infected Sf21 cells were grown for 72 h in Sf‐900 III SFM medium (Thermo Fischer Scientific) at 27 °C. Cells were harvested by centrifugation and re‐suspended in running buffer (100 mM Tris pH 8.0, 150 mM NaCl, 1 mM EDTA and 1 mM DTT) supplemented with 10 mM MgCl2, benzonase and cOmplete protease inhibitors (Merck). […] The clarified lysate was then loaded onto a 5 mL Strep‐Tactin Superflow high capacity column (IBA) pre‐equilibrated in running buffer. After sample loading and washing, the TwinStrepII‐GST‐HDAC10 protein was eluted in running buffer supplemented with 5 mM desthiobiotin (IBA). The elution fractions containing TwinStrepII‐GST‐HDAC10 were pooled and concentrated before being injected onto a HiLoad 16/600 Superdex 200 pg size exclusion chromatography column (GE Healthcare) pre‐equilibrated with 25 mM HEPES/NaCl pH 7.5, 150 mM NaCl, 0.5 mM EDTA, 1 mM DTT and 10 % glycerol. Samples were eluted from the size exclusion chromatography column in the same buffer, flash‐frozen in liquid N2 and stored at −80 °C.
The TR‐FRET measurements of the monohydroxamic acids in this manuscript were measured in the original assay format, which is described directly below this paragraph. The TR‐FRET measurements of the dihydroxamic acids in this manuscript were measured in the modified format, which is described two paragraphs below this one.
The concentrations of reagents in 10 μL final assay volume were 3 nM GST‐HDAC10, 30 nM “Tubastatin‐Alexa647‐Tracer” and 0.5 nM Eu‐anti‐GST. GST‐HDAC10 and LanthaScreen™ Eu‐anti‐GST Antibody were purchased from Life Technologies, and the Tubastatin‐Alexa647‐Tracer was synthesized in‐house as previously described.19 An 11‐fold 1 : 3‐serial dilution of compounds starting at 2 mM was prepared in 384 well pp‐plates (Greiner) from 10 mM stocks in DMSO and 1 μL was transferred to assay plates. Nine μL of the reagent‐mix was added and the plate was incubated for 1 h at RT before TR‐FRET was measured in an EnVision™ plate reader equipped with a TR‐FRET Laser module. […] Percent inhibition was calculated for each well from negative control wells containing 2 % DMSO and positive control wells containing 20 μM SAHA. The resulting dose‐response curves were fitted in ActivityBase (IDBS) using a four‐parameter logistic model and pIC50‐values were calculated.
After drug dosing to the premixed assay reagents in buffer, plates were shaken (800 rpm orbital shaker, 30 s), centrifuged (300 g, 1 min) and incubated at room temperature in the dark for 60 min. TR‐FRET was measured with a CLARIOstar (BMG Labtech) plate reader, equipped with TR‐FRET filters.

A further data set addresses T2, HDAC8 (Homo sapiens, UniProt Q9BY41).
T2 construct: purchased BPS Bioscience 50008
T2 sequence (Q9BY41 1-377): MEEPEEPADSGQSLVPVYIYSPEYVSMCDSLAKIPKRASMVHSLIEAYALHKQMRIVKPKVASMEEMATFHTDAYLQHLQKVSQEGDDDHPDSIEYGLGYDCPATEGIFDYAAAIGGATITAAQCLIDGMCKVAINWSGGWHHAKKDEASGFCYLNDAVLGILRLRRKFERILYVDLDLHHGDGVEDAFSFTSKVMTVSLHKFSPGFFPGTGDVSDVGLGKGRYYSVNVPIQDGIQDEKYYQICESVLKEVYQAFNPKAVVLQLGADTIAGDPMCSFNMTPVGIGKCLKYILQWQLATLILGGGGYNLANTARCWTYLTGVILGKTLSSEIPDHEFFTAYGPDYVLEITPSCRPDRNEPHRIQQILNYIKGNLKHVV
As to the kind of experiment: HDAC-Glo I/II enzymatic assay, HDAC8. To be noted: read-out: HDAC8 pIC50 (converted). In kind it is biochemical. Here is the method: Inhibitors were tested at eight serial dilutions in triplicate ranging from 50 μM–86,7 pM (HDAC6) or 100 μM–8,67 nM (HDAC1,2,3,8). Drug dosing was performed from 10 mM and 0.1 mM DMSO stock solutions with a D300e Digital Dispenser (Tecan). HDACs (7 ng/mL for HDAC1, 10 ng/mL for HDAC2, 200 ng/mL for HDAC3/Ncor2 complex, 100 ng/mL for HDAC6, 200 ng/mL for HDAC8) and inhibitors were incubated together for 30 min at room temperature. After addition of the HDAC‐Glo™ I/II reagent, plates were shaken (800 rpm orbital shaker, 30 s), centrifuged (300 g, 1 min) and incubated at room temperature for 30 min. Luminescence was detected with a CLARIOstar (BMG Labtech) plate reader.

The subject of data set [2] is SK‐N‐BE(2)C neuroblastoma cell line. The data set can be described thus: SK-N-BE(2)C cell viability assay (CellTiter-Blue). In kind it is cell-based. Conditions: SK-N-BE(2)C cells. Here is the method:
Cell viability assay: SK‐N‐BE(2)C cells were cultured in Dulbecco's modified Eagle medium (DMEM, Lonza, Basel, Switzerland) supplemented with 10 % fetal calf serum (FCS, Sigma‐Aldrich) and 1 % non‐essential amino acids (NEAA, Lonza). SK‐N‐BE(2)C cells were seeded from a confluent flask into 96‐well plates in 100 μL full growth medium at a density of 5×10^3 cells per well the day before treatment. Cells were treated in triplicates with drug concentrations as indicated in the respective figure. Drugs were dosed from 50 mM and 200 mM stock solutions with a D300e Digital Dispenser (Tecan) and DMSO concentrations were normalized to 0.2 % for all wells. Plates were shaken (1000 rpm orbital shaker, 30 s) and incubated under standard culture conditions for 72 h. To each well 20 μL of CellTiter‐Blue® reagent (G8081, Promega) was added, plates were shaken (600 rpm orbital shaker, 20 s) and incubated at 37 °C overnight. Fluorescence was measured (extinction/emission: 570 nm/590 nm) on a FluoStar Optima (BMG Labtech) plate reader. Cell viability was normalized with untreated positive controls and cell‐free negative controls. IC50‐values were calculated as described in the BRET assay.
For orientation: Alamar Blue is a resazurin reagent that responds to reducing activity.

In data set [3] the test system is acetylation of the HDAC8 substrate SMC3. As to the kind of experiment: Western blot of SMC3 acetylation in SK-N-BE(2)C cells. It counts as cell-based. To be noted: relative to solvent control. Here is the method:
Western blot analysis of SMC3, tubulin and histone H3 acetylation: For the analysis of protein acetylation, 1.5–2×10^6 SK‐N‐BE(2)‐C cells were seeded per 10 cm dish and allowed to adhere overnight. Cells were treated for 18 h (Figure 4B) or 6 h (Figure 4E) with inhibitors at concentrations indicated in the respective figure. […] Cell debris was removed by centrifugation (15 000 g for 10 min at 12 °C).

Data set [4] deals with T1, HDAC10. The data set can be described thus: cellular BRET HDAC10 target engagement assay (stably transfected HeLa cells). In kind it is cell-based. Also noted: host or cells: HeLa (stably transfected mono-clones). Conditions: cellular target engagement, one experiment in triplicate; read-out: HDAC10 BRET pIC50 (converted). As for the experimental part:
Production of mono‐clones stably expressing HDAC‐nanoBRET proteins: Plasmids expressing a fusion of HDAC10 with nanoluciferase were obtained from Promega (N2170). HeLa cells (0.75×10^6) were seeded in a 6 cm dish and after 24 h were transfected with a mix of 10 μg plasmid and 3 μL Fugene in 200 μL OptiMEM. In detail, cells were washed with pre‐warmed OptiMEM and subsequently overlaid with 2.3 mL of OptiMEM. After addition of 200 μL transfection mix, cells were incubated for 24 h at 37 °C. Cells were than trypsinized and 0.2×10^5 cells were seeded into both 10 cm and 15 cm dishes. Transformants were selected with 1 mg/mL G‐418 for 6 days with a media change after 3 days. Clones which formed colonies were picked by rinsing plates with 3 mL Trypsin/EDTA (Sigma T3924) followed by a 2 min incubation with 300 μL Trypsin/EDTA at 37 °C. Colonies were then loosened and aspirated with a 10 μL filter tip and transferred to 24‐well plates containing selection medium.
Culture of stable BRET cell lines: Stably transfected HeLa cells were cultivated under sterile conditions in polystyrene cell culture flasks (658170, Greiner) at 37 °C and 5 % CO2 in a humidified atmosphere. DMEM growth medium (D6049, Sigma) was supplemented with 10 % FCS (FBS‐12A, Capricorn Scientific), 1 % penicillin‐streptomycin (P4333, Sigma) and 1 mg/mL Geneticin (2039.3, Roth). At confluency, cells were passaged by removing old medium, DPBS (14190‐094, gibco) wash, trypsination (T4049, Sigma) and seeding in fresh growth medium.
BRET assay: The intracellular target engagement assay on HDAC10 was performed as described by the kit manufacturer in a 96‐well plate (3600, Corning) format with 1.9×10^4 cells per well and a tracer concentration of 0.3 μM. […] Drug dosing was performed from 10 mM and 1 mM DMSO stock solutions with a D300e Digital Dispenser (Tecan), DMSO concentrations were normalized to 0.5 % for all wells. Assay plates were incubated at 37 °C for 2 h followed by measurement of 450 nm and 650 nm luminescence (80 nm bandwidth) at room temperature with a CLARIOstar (BMG Labtech) plate reader 2 min after NanoLuc substrate addition.

Data set [5] relates to lysosomal staining with LysoTracker DND‐99 (HDAC10 knockdown phenotype). The data set can be described thus: LysoTracker assay in SK-N-BE(2)C cells. In kind it is cell-based. To be noted: 10 μM inhibitor, normalized to DMSO. Here is the method: LysoTracker assay: SK‐N‐BE(2)‐C cells were seeded into 6‐well dishes at a density of 1.5×10^5 cells per well. Cells were treated with inhibitor over night at concentrations indicated in the figure and stained the following day for 1 h with 50 nM LysoTracker® Red DND‐99 in medium under standard cell culture conditions. Cells were washed with ice‐cold RPMI without phenol‐red and trypsinized for 3 min at 37 °C. Detached cells were centrifuged for 3 min at 8600 g and re‐suspended in ice‐cold RPMI without phenol red. Mean LysoTracker fluorescence was quantified on a BD FACSCanto II platform using the PE filter setting. Data were normalized to mean LysoTracker fluorescence of solvent (DMSO) treated cells.

Take `O=C(NO)c1ccc(Cn2ccc3ccccc32)cc1` [Compound 1a]: the IC50 on HDAC10 [1] was 66.1 nM; on HDAC8, 380 nM.
The like results for `COc1ccc(Cc2c[nH]c3ccc(C(=O)NO)cc23)cc1` [Compound 2d] were, in that order, 3160 nM and 69.2 nM.
For `COc1ccc(Cc2cn(CCN(C)C)c3ccc(C(=O)NO)cc23)cc1` [Compound 2e], in that order: 661 nM and 43.7 nM.
Regarding `COc1ccc(Cn2ccc3ccc(C(=O)NO)cc32)cc1` [Compound 2a], the “cytotoxicity (extent of effect)” value in data set [2] (Figure S1) is on record as “not fully cy totoxic”. In addition, the Emax in data set [2] (Figure S1, read-out: maximum effect, cell growth inhibition) worked out at 62%. Further, the EC50 in data set [2] (read-out: EC50 dose-response curve (Figure S1)) was 8100 nM. For the same compound, the “acetylation of SMC3 (HDAC8 substrate), Western blot” value in data set [3] was “increased acetylation”.
Take `COc1ccc(Cn2c3c(c4ccc(C(=O)NO)cc42)CN(C)CC3)cc1` [Compound 2c]: the figures for the IC50 at HDAC10 [1] and at HDAC8 were 6460 nM and 141 nM, respectively.
For the compound `O=C(NO)c1ccc(Cc2c[nH]c3ccccc23)cc1` [Compound 1d, 4-((1H-indol-3-yl)methyl)-N-hydroxyb en zamide], the figures for the IC50 at HDAC10 [1] and at HDAC10 [4] were 27.5 nM and 39.8 nM, respectively.
In the case of `COc1ccc(Cn2nc(CN(C)C)c3ccc(C(=O)NO)cc32)cc1` [Compound 2g], the IC50 is 6920 nM at HDAC10 [1] and 29.5 nM on HDAC8. The “acetylation of SMC3 (HDAC8 substrate), Western blot” value in data set [3] is “increased acetylation”.
Turning to `O=C(NO)c1ccc(Cn2ncc3ccccc32)cc1` [Compound 1f], the IC50 was 234 nM at HDAC10 [1] and 389 nM at HDAC8.
With `CN1CCc2c(c3ccccc3n2Cc2ccc(C(=O)NO)cc2)C1` [Compound 1c, reference compound], the “cytotoxicity (extent of effect)” value in data set [2] (Figure S1) is “fully cytotoxic”. Moreover, in data set [5], the “lysosomal staining with LysoTracker DND-99 (HDAC10 knockdown phenotype)” value was “effective”.
`COc1ccc(Cn2cc(CN(C)C)c3ccc(C(=O)NO)cc32)cc1` [Compound 2b]: the IC50 is 1620 nM at HDAC10 [1] and 49 nM on HDAC8.
Turning to `COc1ccc(Cn2ncc3ccc(C(=O)NO)cc32)cc1` [Compound 2f], the figures for the IC50 on HDAC10 [1] and at HDAC8 were 19100 nM and 20.9 nM, respectively.
